Data from patent US11701353B2, “Methods, compositions, and uses of novel FYN kinase inhibitors” (Pathways Neuro Pharma, Inc., priority 2015, dated 2023).

Legend:
[1] = molecular target: full-length recombinant human FYN A (Homo sapiens (Human), UniProt P06241); test: ADP-Glo Kinase Assay, FYN kinase inhibition (primary and secondary screen); format: biochemical
Description: The chemical library was comprised of the SoftFocus ATP-competitive hinge binding compounds described by Harris, C. J., Hill, R. D., Sheppard, D. W., et al., The Design and Application of Target-Focused Compound Libraries. Combinatorial Chemistry and High Throughput Screening 14:521-31 (2011). The specific pharmacore chemistries included SFK52 comprising 6-[R2]-3-[R1]imidazo[1,2-b] pyridazine compounds, SFK33 comprising N-(3-[R2] imidazo [1,2-b] pyridazin-6-yl) [R1] amine compounds, SFK49 comprising N-(5-[R2] imidazo [2,1-b][1,3,4] thiadiazol-2-yl)[R1]-amine compounds, SFK 40 comprising 5-[R2]-3-[R1] pyridin-2-amine compounds, SFK43 comprising 6-[R2]-3-[R1]imidazo[1,2-a] pyrazine compounds, and SFK63. The chemical structures of the initial 600 potential kinase inhibitors are presented in Table 3, with those chosen for additional analysis presented in Table 4. Comparison of the compounds presented in Table 1 and those of Tables 2, 3 and 4, illustrate the novelty of the chemical structures claimed herein.
FYN kinase (10 micrograms) was from the FYN A Kinase Enzyme System (V3571, Promega UK Ltd.), a full-length recombinant human FYN A containing an N-terminal GST tag of about 85 kDa, expressed by bacullovirus in […] insect cells, supplied at a concentration of 0.1 microgram/microliter in 5× reaction buffer. The FYN substrate, a 12 amino acid peptide of the sequence […], containing a single tyrosine phosphorylation site, was custom synthesized (Peptide Synthetics, Peptide Protein Research, Fareham, UK) and supplied as a 4 mg/ml aqueous solution. All other reagents were obtained from Sigma (Sigma-Aldrich, Gillingham, Dorset, UK), with the exception of UltraPure ATP (V9102, Promega UK Ltd.) and the ATP-competitive broad spectrum protein kinase inhibitor staurosporine (569397, Merck Millipore, Watford, Hertfordshire, UK), or as otherwise indicated.
The assay procedure determines the IC50 of each potential FYN kinase inhibitor by measuring the enzyme catalyzed ATP-dependent phosphorylation of the FYN substrate peptide. The ADP-Glo™ Kinase Assay is specifically designed to quantify kinase activity by measuring the ADP produced in the reaction The reaction buffer comprises 40 mM Tris·HCl (pH 7.5), 20 mM MgCl2, 0.1 mg/ml BSA and 5 microM DTT. Individual compounds within the chemical library were dissolved in DMSO at known concentrations. Briefly, 2.5 microliters of reaction buffer containing 3 picograms of FYN kinase and serial dilutions of each potential FYN kinase inhibitor (9 3-fold dilutions of a 10 micromolar top sample) are placed into each well of a 384 well microtiter plate and incubated at room temperature for 30 minutes. An additional 2.5 microliters of reaction buffer containing 100 picograms of the FYN substrate and 12.5 picomoles of ATP are then added to each well and the reaction carried out for 90 minutes at room temperature. The reactions are terminated by addition of 5 microliters of the ADP-Glo™ Reagent component of the ADP-Glo™ Kinase Assay kit to each well. The ADP-Glo™ Reagent comprises an ATP-dependent adenylate cyclase, an inorganic pyrophosphatase and an excess of staurosporine. The adenylate cyclase converts the remaining ATP to cAMP and pyrophospahte, the pyrophosphatase converts the pyrophosphate to phosphate and the staurosporine inhibits the activity of the FYN kinase, the net effect is to remove all residual ATP while preserving the ADP produced by FYN kinase. The terminated reactions are incubated for 40 minutes at room temperature, prior to addition of the Kinase Detection Reagent component of the ADP-Glo™ Kinase Assay kit to each well. The Kinase Detection Reagent comprises pyruvate kinase, phosphoenol pyruvate (PEP), luciferin and luciferase. The pyruvate kinase converts PEP to pyruvate and in the process generates ATP from the residual ADP present in the terminated reaction. […]

Fyn = Fyn (Mus musculus (Mouse), UniProt P39688); details: cited from earlier work
[2] = primary screen, initial compounds
[3] = secondary screen, candidate compounds re-synthesized and expanded

Sequence of full-length recombinant human FYN A (P06241 whole entry): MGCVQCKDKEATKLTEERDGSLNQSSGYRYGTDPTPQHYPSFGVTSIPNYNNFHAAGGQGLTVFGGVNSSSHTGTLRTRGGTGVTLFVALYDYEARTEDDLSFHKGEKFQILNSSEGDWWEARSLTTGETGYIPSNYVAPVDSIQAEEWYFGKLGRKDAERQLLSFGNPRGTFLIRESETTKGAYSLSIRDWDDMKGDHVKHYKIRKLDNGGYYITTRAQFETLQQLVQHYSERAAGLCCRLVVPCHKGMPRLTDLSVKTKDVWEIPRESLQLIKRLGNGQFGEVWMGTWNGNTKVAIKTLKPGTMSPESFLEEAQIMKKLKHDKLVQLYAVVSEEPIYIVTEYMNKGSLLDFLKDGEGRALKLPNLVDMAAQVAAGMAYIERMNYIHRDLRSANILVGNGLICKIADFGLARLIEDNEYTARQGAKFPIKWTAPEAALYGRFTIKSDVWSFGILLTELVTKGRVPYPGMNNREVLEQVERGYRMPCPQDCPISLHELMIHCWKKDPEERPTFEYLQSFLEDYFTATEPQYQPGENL
Sequence of Fyn (P39688 whole entry): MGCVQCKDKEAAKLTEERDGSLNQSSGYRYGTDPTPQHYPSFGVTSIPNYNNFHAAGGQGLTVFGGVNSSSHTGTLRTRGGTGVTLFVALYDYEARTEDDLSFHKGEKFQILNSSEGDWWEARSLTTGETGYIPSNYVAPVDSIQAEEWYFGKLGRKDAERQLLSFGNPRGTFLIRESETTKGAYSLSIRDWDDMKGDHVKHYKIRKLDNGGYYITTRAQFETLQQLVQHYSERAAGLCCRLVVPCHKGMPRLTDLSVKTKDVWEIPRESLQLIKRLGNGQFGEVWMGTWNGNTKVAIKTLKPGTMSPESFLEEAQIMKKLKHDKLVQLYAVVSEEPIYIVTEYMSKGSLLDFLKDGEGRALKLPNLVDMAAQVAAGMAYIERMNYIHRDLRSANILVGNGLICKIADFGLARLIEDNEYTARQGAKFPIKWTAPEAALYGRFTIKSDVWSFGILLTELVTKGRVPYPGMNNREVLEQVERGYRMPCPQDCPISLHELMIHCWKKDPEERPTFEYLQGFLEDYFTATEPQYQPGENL

Structure (SMILES)	IC50 [1, 2] [µM]	further results
CC(=O)Nc1cccc(-c2cncc(NCc3ccco3)n2)c1 [035_0144_0081, N-[3-[6-(2-furylmethyl-amino)pyrazin-2-yl]phenyl] acetamide]	11.2	
Oc1cccc(-c2cncc(NCc3ccoc3)c2)c1 [081_0284_2069, 3-[5-(3-furylmethyl-amino)-3-pyridyl]phenol]	10.9	
OCc1ccc(-c2cnc3ccc(NCc4ccco4)nn23)cc1 [229_0144_0285, [4-[6-(2-furylmethyl-amino)imidazo[1,2-b]pyridazin-3-yl]phenyl] methanol]	2.2	
OCc1cccc(-c2cnc3ccc(NCc4ccco4)nn23)c1 [229_0144_0291, [3-[6-(2-furylmethyl-amino)imidazo[1,2-b]pyridazin-3-yl]phenyl] methanol]	3.86	
CC(=O)c1cccc(-c2cnc3ccc(NCc4ccco4)nn23)c1 [229_0144_4145, 1-[3-[6-(2-furylmethyl-amino)imidazo[1,2-b]pyridazin-3-yl]phenyl] ethanone]	0.997	
NC(=O)c1cccc(-c2cnc3sc(NCC4CC4)nn23)c1 [699_4051_0347, 3-[2-(cyclopropyl-methyl-amino)imidazo [2,1-b][1,3,4]thia-diazol-5-yl]benzamide]	1.94	
Cc1ccccc1CNc1nn2c(-c3cccc(C(=O)N(C)C)c3)cnc2s1 [699_8074_0349, N,N-dimethyl-3-[2-(o-tolylmethyl-amino)imidazo[2,1-b][1,3,4]thia-diazol-5-yl]benzamide]	3.73	
O=CNc1cc(-c2ccc(C(=O)N3CCOCC3)cc2)cn2c(-c3ccc(F)cc3)cnc12 [788_0339_0337, N-[3-(4-fluorophenyl)-6-[4-(morpholine-4-carbonyl)phenyl]imidazo[1,2-a]pyridin-8-yl]formamide]	3.59	
COc1ccc(-c2cnc3ccc(Cc4ccccc4)nn23)cc1OC [828_0079_6001, 6-benzyl-3-(3,4-dimethoxyphen-yl)imidazo[1,2-b]pyridazine]	0.974	
NC(=O)c1ccc(-c2cnc3ccc(Cc4ccc(F)cc4)nn23)cc1 [828_0346_6370, 4-[6-[(4-fluorophenyl)methyl]imidazo [1,2-b]pyridazin-3-yl]benzamide]	1.3	
c1csc(-c2cnc3ccc(-c4ccncc4)nn23)c1 [828_4147_0069, 6-(4-pyridyl)-3-(2-thienyl)imidazo [1,2-b]pyridazine]	0.497	
COc1cc(-c2cnc3ccc(NCc4cccs4)nn23)ccc1O [BF000145954, 2-methoxy-4-[6-(2-thienylmeth-ylamino)imi-dazo[1,2-b]pyridazin-3-yl]phenol]		IC50 [1, 3]: 0.166 µM
CN(C)C(=O)c1cccc(-c2cnc3sc(NCC4CC4)nn23)c1 [BF000714798, 3-[2-(cyclopropyl-methylamino)imidazo[2,1-b][1,3,4]thia-diazol-5-yl]-N,N-dimethyl-benzamide]		IC50 [1, 3]: 0.884 µM
CN(C)C(=O)c1cccc(-c2cnc3sc(NCc4ccc5c(c4)OCO5)nn23)c1 [BF000717214, 3-[2-(1,3-benzodioxol-5-ylmethyl-amino)imi-dazo[2,1-b][1,3,4]thia-diazol-5-yl]-N,N-dimethyl-benzamide]		IC50 [1, 3]: 1.93 µM
COc1cc(-c2cnc3ccc(NCc4ccccn4)nn23)ccc1O [BF000817095, 2-methoxy-4-[6-(2-pyridylmeth-ylamino)imi-dazo[1,2-b]pyridazin-3-yl]phenol]		IC50 [1, 3]: 0.233 µM
CN(C)S(=O)(=O)c1ccc2c(c1)/C(=C/c1cc3c([nH]1)CCCC3)C(=O)N2 [SU6656]		energy utilization (Fyn; Fyn knockout strains): no increase; lipid utilization (Fyn; Fyn knockout strains): no increase; fat mass (Fyn; treated mice relative to untreated control mice): significantly reduced
